{"source": "patent US20260199305A1", "about": "“LONG-ACTING ORAL PHARMACEUTICAL COMPRISING HYPOXIA-INDUCIBLE FACTOR PROLYL HYDROLASE INHIBITOR AND USE THEREOF” (Kind Pharmaceutical, priority 2023, published 2026)", "key": {"[1]": {"system": "Normal Rats", "assay": "Hemoglobin increase in normal rats, oral tiw vs qw for 4 weeks", "format": "in vivo, SD rats", "set-up": "Hemoglobin D0 / Hemoglobin D14: unit not given here", "settings": "for Hemoglobin D0 / Hemoglobin D7 / Hemoglobin D14 / Hemoglobin D21 / Hemoglobin D28: oral; for Hemoglobin D0: day 0; for Hemoglobin D7: day 7; for Hemoglobin D14: day 14; for Hemoglobin D21: day 21; for Hemoglobin D28: day 28", "procedure": "A total of 70 male SD rats, approximately 7 weeks old, were acclimated to the experimental environment for 10 days before the start of the experiment. Throughout the experiment, animals were housed in cages (5 rats per cage) in a conventional animal room with 24-hour continuous central air conditioning, temperature set at 24° C., and a 12-hour light/dark cycle. All rats had free access to food (dry pelleted food) and purified drinking water. The animals were randomly divided into 8 groups: the vehicle tiw group and vehicle qw group each contained 5 rats; Comp-1 3 mpk tiw, 6 mpk tiw, 10 mpk tiw, 9 mpk qw, 18 mpk qw, and 30 mpk qw, each contained 10 rats (mpk=mg/kg). The vehicle was 1 M aqueous meglumine solution. Each rat received oral gavage of the vehicle or the corresponding weight of Comp-1 vehicle solution according to its body weight and group assignment (tiw, qw) for a total of 4 weeks. Blood samples were collected from each rat on days 0, 7, 14, 21, and 28 to measure hemoglobin values (HGB, Hb). After tail snip blood collection, hemoglobin values were measured and read using a hemoglobin detector (HemoCue Hb 201+, produced by Radiometer). Quantitative data results were analyzed statistically using one-way analysis of variance (ANOVA) between groups, followed by Dunnett's multiple comparison method. Two-tailed analysis was used for statistics, and the statistical significance level was set at P<0.05."}, "[2]": {"target": "T1, HIF PHD-2 (Homo sapiens, UniProt Q9GZT9)", "T1 construct": "purchased Active Motif", "T1 sequence (Q9GZT9 whole entry)": "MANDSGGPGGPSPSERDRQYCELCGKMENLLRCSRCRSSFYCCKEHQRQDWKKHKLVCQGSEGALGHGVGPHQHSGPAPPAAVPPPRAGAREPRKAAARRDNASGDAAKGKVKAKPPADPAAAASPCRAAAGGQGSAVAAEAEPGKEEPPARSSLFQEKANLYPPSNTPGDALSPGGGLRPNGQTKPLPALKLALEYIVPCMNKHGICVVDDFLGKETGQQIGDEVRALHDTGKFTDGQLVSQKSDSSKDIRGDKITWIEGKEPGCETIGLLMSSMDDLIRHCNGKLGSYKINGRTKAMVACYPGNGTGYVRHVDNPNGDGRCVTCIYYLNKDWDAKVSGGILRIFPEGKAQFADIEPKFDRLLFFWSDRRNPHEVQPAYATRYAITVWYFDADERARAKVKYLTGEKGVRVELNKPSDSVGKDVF", "assay": "Inhibitory effect on HIF PHD-2 (HIF-1α peptide hydroxylation, HPLC)", "format": "biochemical", "settings": "PHD2 enzyme, 30° C., 2 hours, read-out: IC50 against HIF PHD-2", "procedure": "Stock solutions of the following reagents were prepared: HEPES buffer (pH 7.4, 50 mM), HIF-1α peptide (sequence: DLDLEMLAPYIPMDDDFQL; Genscript) solution in DMSO/HEPES (0.5 mM; preparation method: first prepare a 20 mM solution of this peptide in DMSO, then dilute it 40-fold with the HEPES buffer), ascorbic acid solution (10 mM), FeSO4 in hydrochloric acid solution (0.1 mM FeSO4, 10 μM HCl), 2-oxoglutaric acid solution (2-OG: 1 mM), EDTA solution (pH 8.0; 0.5 M), and eight concentrations of Comp-1/DMSO solutions (concentrations: 4000 μM, 1333 μM, 444.4 μM, 148.1 μM, 49.4 μM, 16.5 μM, 5.5 μM, and 1.82 μM). The following reagents were added to nine Eppendorf tubes: 50 μL HEPES solution, 10 μL ascorbic acid solution, 10 μL FeSO4 in HCl solution, 10 μL 2-OG solution, 10 μL HIF-1α peptide solution; then 5 μL of each of the eight Comp-1/DMSO solutions and 5 μL of DMSO were added separately; finally, 5 μL of PHD2 enzyme (Active Motif; concentration: 0.2 μg/μL) was added to each tube. Each of the resulting reaction systems was incubated at 30° C. in dark for 2 hours. Finally, 10 μL of EDTA solution was added to each tube to terminate the reaction. […] The concentrations of HIF-peptide and hydroxylated peptide were quantified using a UV absorption detector to calculate their ratio. The IC50 was calculated using GraphPad Prism 6.0 software."}}, "note": "pIC50: −log10 of the molar value."}
{"smiles": "O=C(O)CNC(=O)C1=C(O)C2(CCCC2)n2c(ccc2-c2ccccc2)C1=O", "note": "[Comp-1, (6′-hydroxy-8′-oxo-3′-phenyl-8′H-spiro[cyclopentane-1,5′-indolizine]-7′-carbonyl)glycine]", "values": [{"measurement": "Hemoglobin D0", "setting": "[1]; 3 mg/kg, tiw", "value": "16.42 ± 0.74"}, {"measurement": "Hemoglobin D7", "setting": "[1]; 3 mg/kg, tiw", "value": "18.32 ± 0.70"}, {"measurement": "Hemoglobin D14", "setting": "[1]; 3 mg/kg, tiw", "value": "19.06 ± 0.81"}, {"measurement": "Hemoglobin D21", "setting": "[1]; 3 mg/kg, tiw", "value": "18.09 ± 0.57"}, {"measurement": "Hemoglobin D28", "setting": "[1]; 3 mg/kg, tiw", "value": "18.97 ± 0.56"}, {"measurement": "Hemoglobin D0", "setting": "[1]; 6 mg/kg, tiw", "value": "17.4 ± 1.07"}, {"measurement": "Hemoglobin D7", "setting": "[1]; 6 mg/kg, tiw", "value": "18.76 ± 0.76"}, {"measurement": "Hemoglobin D14", "setting": "[1]; 6 mg/kg, tiw", "value": "20.15 ± 0.58"}, {"measurement": "Hemoglobin D21", "setting": "[1]; 6 mg/kg, tiw", "value": "19.49 ± 0.82"}, {"measurement": "Hemoglobin D28", "setting": "[1]; 6 mg/kg, tiw", "value": "21.26 ± 1.08"}, {"measurement": "Hemoglobin D0", "setting": "[1]; 9 mg/kg, qw", "value": "16.96 ± 0.82"}, {"measurement": "Hemoglobin D7", "setting": "[1]; 9 mg/kg, qw", "value": "17.57 ± 1.07"}, {"measurement": "Hemoglobin D14", "setting": "[1]; 9 mg/kg, qw", "value": "17.77 ± 2.01"}, {"measurement": "Hemoglobin D21", "setting": "[1]; 9 mg/kg, qw", "value": "17.73 ± 1.15"}, {"measurement": "Hemoglobin D28", "setting": "[1]; 9 mg/kg, qw", "value": "19.09 ± 1.44"}, {"measurement": "Hemoglobin D0", "setting": "[1]; 10 mg/kg, tiw", "value": "17.74 ± 1.06"}, {"measurement": "Hemoglobin D7", "setting": "[1]; 10 mg/kg, tiw", "value": "19.21 ± 0.71"}, {"measurement": "Hemoglobin D14", "setting": "[1]; 10 mg/kg, tiw", "value": "21.83 ± 1.18"}, {"measurement": "Hemoglobin D21", "setting": "[1]; 10 mg/kg, tiw", "value": "22.12 ± 1.40"}, {"measurement": "Hemoglobin D28", "setting": "[1]; 10 mg/kg, tiw", "value": "23.69 ± 1.31"}, {"measurement": "Hemoglobin D0", "setting": "[1]; 18 mg/kg, qw", "value": "17.2 ± 1.00"}, {"measurement": "Hemoglobin D7", "setting": "[1]; 18 mg/kg, qw", "value": "17.95 ± 0.88"}, {"measurement": "Hemoglobin D14", "setting": "[1]; 18 mg/kg, qw", "value": "18.57 ± 0.76"}, {"measurement": "Hemoglobin D21", "setting": "[1]; 18 mg/kg, qw, in g/dL", "value": "18.72 ± 0.92"}, {"measurement": "Hemoglobin D28", "setting": "[1]; 18 mg/kg, qw", "value": "18.99 ± 1.23"}, {"measurement": "Hemoglobin D0", "setting": "[1]; 30 mg/kg, qw", "value": "17.13 ± 1.17"}, {"measurement": "Hemoglobin D7", "setting": "[1]; 30 mg/kg, qw, in g/dL", "value": "19.33 ± 0.56"}, {"measurement": "Hemoglobin D14", "setting": "[1]; 30 mg/kg, qw", "value": "19.44 ± 1.07"}, {"measurement": "Hemoglobin D21", "setting": "[1]; 30 mg/kg, qw, in g/dL", "value": "20.04 ± 0.93"}, {"measurement": "Hemoglobin D28", "setting": "[1]; 30 mg/kg, qw, in g/dL", "value": "20.62 ± 0.76"}, {"measurement": "hemoglobin levels compared with vehicle once weekly (qw)", "setting": "[1]; day 28, the three once weekly (qw) groups", "value": "statistically significantly increased"}, {"measurement": "pIC50", "setting": "[2]", "value": 5.63}]}
